Reference: the NIST ThermoML archive (doi:10.1021/je050031f)
Numbers after ± are expanded uncertainties.

How the values were obtained:
[1] = 100.8 kPa, Liquid
[2] = refractive index (Na D-line) (dimensionless); conditions: 101.33 kPa, Liquid, Standard Abbe refractometry
[3] = xn = mol fraction of the nth substance listed; conditions: 100.8 kPa, Liquid
[4] = refractive index (Na D-line) (dimensionless); xn = mol fraction of the nth substance listed; conditions: 100.8 kPa, Liquid, Standard Abbe refractometry

Structure (SMILES) | mass density ([1]; 288.15 K) [kg/m3] | viscosity ([1]; 288.15 K) [mPa·s] | mass density ([1]; 298.15 K) [kg/m3] | viscosity ([1]; 298.15 K) [mPa·s] | mass density ([1]; 308.15 K) [kg/m3] | viscosity ([1]; 308.15 K) [mPa·s] | refractive index ([2]; 288.15 K) | refractive index ([2]; 298.15 K) | refractive index ([2]; 308.15 K) | mass density ([3]; 288.15 K, x1 = 1) [kg/m3] | mass density ([3]; 298.15 K, x1 = 1) [kg/m3] | mass density ([3]; 308.15 K, x1 = 1) [kg/m3] | refractive index ([4]; 288.15 K, x1 = 1) | refractive index ([4]; 298.15 K, x1 = 1) | refractive index ([4]; 308.15 K, x1 = 1) | other results
CC(C)OC(C)C [diisopropyl ether] | 729 ± 0.3 | 0.347 ± 0.005 | 718.6 ± 0.3 | 0.313 ± 0.005 | 707.9 ± 0.3 | 0.283 ± 0.005 | 1.37126 ± 0.00031 | 1.36537 ± 0.00031 | 1.35954 ± 0.00031 | – | – | – | – | – | – | –
CC(C)OC(C)C [diisopropyl ether] + CC1CCCCC1 | – | – | – | – | – | – | – | – | – | 729 ± 0.3 | 718.6 ± 0.3 | 707.9 ± 0.3 | 1.37126 ± 0.00031 | 1.36537 ± 0.00031 | 1.35954 ± 0.00031 | viscosity ([3]; 288.15 K, Capillary tube (Ostwald / Ubbelohde) method, x1 = 1): 0.347 mPa·s; viscosity ([3]; 298.15 K, Capillary tube (Ostwald / Ubbelohde) method, x1 = 1): 0.313 mPa·s; viscosity ([3]; 308.15 K, Capillary tube (Ostwald / Ubbelohde) method, x1 = 1): 0.283 mPa·s
CCO [ethanol] | 793.6 ± 0.2 | 1.31 ± 0.016 | 785.2 ± 0.3 | 1.085 ± 0.013 | 776.5 ± 0.3 | 0.906 ± 0.011 | 1.36351 ± 0.00031 | 1.35935 ± 0.00031 | 1.35504 ± 0.00031 | – | – | – | – | – | – | –
CCO [ethanol] + CC1CCCCC1 | – | – | – | – | – | – | – | – | – | 793.6 ± 0.2 | 785.2 ± 0.3 | 776.5 ± 0.3 | 1.36351 ± 0.00031 | 1.35935 ± 0.00031 | 1.35504 ± 0.00031 | viscosity ([3]; 288.15 K, x1 = 1): 1.31 ± 0.016 mPa·s; viscosity ([3]; 298.15 K, x1 = 1): 1.085 ± 0.013 mPa·s; viscosity ([3]; 308.15 K, x1 = 1): 0.906 ± 0.011 mPa·s
CCO [ethanol] + CC(C)OC(C)C | – | – | – | – | – | – | – | – | – | – | – | – | – | – | – | mass density ([3]; 288.15 K, x2 = 0): 793.6 ± 0.2 kg/m3; viscosity ([3]; 288.15 K, x2 = 0): 1.31 ± 0.016 mPa·s; mass density ([3]; 298.15 K, x2 = 0): 785.2 ± 0.3 kg/m3; viscosity ([3]; 298.15 K, x2 = 0): 1.085 ± 0.013 mPa·s; mass density ([3]; 308.15 K, x2 = 0): 776.5 ± 0.3 kg/m3; viscosity ([3]; 308.15 K, x2 = 0): 0.906 ± 0.011 mPa·s; refractive index ([4]; 288.15 K, x2 = 0): 1.36351 ± 0.00031; refractive index ([4]; 298.15 K, x2 = 0): 1.35935 ± 0.00031; refractive index ([4]; 308.15 K, x2 = 0): 1.35504 ± 0.00031
CC1CCCCC1 [methylcyclohexane] | 773.4 ± 0.3 | 0.784 ± 0.01 | 765 ± 0.3 | 0.685 ± 0.009 | 756.3 ± 0.3 | 0.6 ± 0.008 | 1.42578 ± 0.00033 | 1.42053 ± 0.00033 | 1.41537 ± 0.00033 | – | – | – | – | – | – | –
